According to US5824700A, “Ortho-quinone derivatives novel synthesis therefor and their use in the inhibition of neoplastic cell growth” (Wisconsin Alumni Research Foundation, priority 1996, dated 1998):
Like-named read-outs stand apart in the source and are kept apart here.

Columns and labels:
HT29 = experiment: Colony formation / cell survival assay, HT29 colon cancer cells; format: cell-based, human; settings: for effect on ability of HT29 cells to reproduce / IC50: FIG. 1; for effect on ability of HT29 cells to reproduce: β-lapachone at approximately 10 μM; for IC50: HT-29, HT29, 4 h exposure, read-out: ED50 (the source's name)
Procedure: (§1) The control flasks are treated with DMSO only. […] The remaining flasks are left untouched.
(§2) The cells are monitored for colony formation. […] The plating efficiency for each dish is then calculated.
(§3) The cell lines HT29 and BE are both human colon cancer cell lines which are used to test the effectiveness of a given agent against cancer cell growth and proliferation. […] The HT29 and BE cell cultures were prepared and tested according to the protocol given above.

BE = experiment: Colony formation / cell survival assay, BE colon cancer cells; format: cell-based, human; settings: for effect on ability of BE cells to reproduce / IC50: FIG. 2; for effect on ability of BE cells to reproduce: β-lapachone at approximately 10 μM; for viability at 2 µM / viability at 10 µM / viability at 20 µM / viability at 100 µM / IC50: Homo sapiens; for viability at 2 µM / viability at 10 µM / viability at 20 µM / viability at 100 µM: 4 h, read-out: Fraction of Cell Survival; for IC50: BE, 4 h exposure, read-out: ED50 (the source's name)
Procedure: as §1, §2, §3

MCF7 = experiment: Colony formation / cell survival assay, MCF7 breast cancer cells; settings: Homo sapiens, MCF7, 4 h
Procedure: 10 standard culture flasks for each drug to be tested are plated with 5×10^5 cells in 5 mL of media and allowed to incubate for 16-24 hours at 37° C.
Fresh stocks of the compounds to be evaluated are prepared in sterile DMSO. For each drug, two of the ten culture flasks prepared on Day 1 are used as controls. The control flasks are treated with DMSO only. […] The remaining flasks are left untouched. The cells are incubated for 4 hours at 37° C.
After 4 hours the control flasks are counted (2 counts for each flask) and the cells per mL calculated based on the average of the control counts. The cells are then replated into six 60 mm dishes for each flask from dilutions based on the cells/mL of the control. (In the various test runs, cell concentrations ranged from approximately 50 to approximately 800 cells per mL.) Day 15-20:
The cells are monitored for colony formation. […] The plating efficiency for each dish is then calculated. The plating efficiencies of the six dishes for each flask are averaged and the standard deviation is calculated. The fraction of cell survival at each concentration is determined based on the controls and plotted as log fraction of cell survival±standard deviation versus the dose of the compound.
In the same fashion as the above tests, several lapachone and dunnione derivatives were evaluated for their efficacy in inhibiting the proliferation of breast cancer cells. In this instance, the cancer cell line utilized was MCF7.

A549 = experiment: Colony formation / cell survival assay, A549 lung cancer cells; format: cell-based; settings: Homo sapiens, A549, 4 h; for IC50: A549, 4 h exposure, read-out: ED50 (the source's name)
Procedure: as §1, §2
The compounds tested were β-lapachone, 3-hydroxy-β-lapachone, 3,3-DINOR-dunnione (designated "Drug A" in the figures), 3-NOR-dunnione (designated "Drug B" in the figures) and dunnione itself (designated "Drug C" in the figures). A legend for the figures is provided below. The cell lines were cultured and the compounds evaluated according to the standard protocol described above.

[1] = test system: human prostate cancer cell line PC-3; experiment: IC50 determination (DNA amount and anchorage-dependent colony formation), prostate cancer PC-3; format: cell-based; settings: PC-3, 24 hours exposure
Procedure: (§4) Table 15 lists the IC50 determinations of Drugs B, C, and D against the human prostate cancer cell line PC-3 and the human breast cancer cell line MCF7. IC50 calculations for each cell line were determined by DNA amount and anchorage-dependent colony formation (CF) as described elsewhere. (See Planchon et al. Cancer Res. 55, 3706 (1995), incorporated herein by reference.) In short, IC50 calculations for each cell line were determined by DNA amount and anchorage-dependent colony formation (CF) assays. For the CF assay, cells were seeded at 500 viable cells/well in 6-well plates and incubated overnight, then treated with equal volumes of media containing β-lapachone at final concentrations ranging from 0.005 to 50 μM in half-log increments (controls were treated with 0.25% DMSO, equivalent to the highest dose of β-lapachone used) for 4 hours or for continuous 12 hour exposures. Plates (3 wells/condition) were stained with crystal violet, and colonies of >50 normal-appearing cells were enumerated. IC50 values for various cells were calculated using drug doses with numbers of colonies surrounding 50% of control. For DNA assays, plates were harvested for IC50 determinations 8 days after treatment using a CytoFluor 2350 fluorescence measurement system (Millipore). Six-well samplings were included in the calculation of DNA fluor units for each dose. A graph of β-lapachone dose versus percentage control DNA in fluor units was used to calculate each IC50. The cells were exposed for 24 hours to the tricyclic naphthoquinones. All experiments were repeated at least twice, each in duplicate. PC-3 is an androgen-independent prostate cancer cell line.

[2] = test system: human breast cancer cell line MCF7; experiment: IC50 determination (DNA amount and anchorage-dependent colony formation), breast cancer MCF7; format: cell-based; settings: MCF7, 24 hours exposure
Procedure: as §4

Topoisomerase II = experiment: Topoisomerase II-mediated DNA cleavage (electrophoresis); format: biochemical, mammalian; settings: gels of FIGS. 9A and 9B
Procedure: Analogous experiments to assay the ability of several of the compounds described herein to induce Topoisomerase II (Topo II)-mediated DNA cleavage were also performed. The results of one such experiment are depicted in the electrophoretegram of FIGS. 9A and 9B. Here, DNA was incubated in the presence of Topo II and several different compounds described herein.
A legend for the compounds which were tested in FIGS. 9A and 9B is as follows: [drawing 25] Lane 1: R=H (β-lapachone) Lane 2: R=OH
In the far left-hand lane of […], DNA alone is shown. Moving to the right, the next lane contains DNA and Topo II (mammalian). Lanes 1-9 of FIGS. 9A and 9B contain a series of concentrations of drugs (see Legend, above) in the presence of DNA and Topo II. Each set of lanes for each drug spans 3 orders of magnitude in concentration (0.1, 1, 10, and 100 μM). […] However, Lanes 1-9, which contain DNA, Topo II, and a drug according to the present invention, show extensive DNA cleavage.

[3] = Homo sapiens, HT-29, 4 h, read-out: Fraction of Cell Survival
[4] = read-out: ED50, MCF7, 4 h exposure, FIG. 6
[5] = read-out: Fraction of Cell Survival
[6] = read-out: ED50, MCF7, 4 h exposure, FIG. 7
[7] = read-out: Fraction of Cell Survival, MCF7, FIG. 7, 1 μM, 4 h
[8] = read-out: Fraction of Cell Survival, MCF7, FIG. 7, 5 μM, 4 h
[9] = read-out: Fraction of Cell Survival, MCF7, FIG. 7, 10 μM, 4 h
[10] = read-out: Fraction of Cell Survival, MCF7, FIG. 7, 50 μM, 4 h
[11] = read-out: Fraction of Cell Survival, A549, FIG. 4, 1 μM, 4 h
[12] = read-out: Fraction of Cell Survival, A549, FIG. 4, 5 μM, 4 h
[13] = read-out: Fraction of Cell Survival, A549, FIG. 4, 10 μM, 4 h
[14] = read-out: Fraction of Cell Survival, A549, FIG. 4, 50 μM, 4 h
[15] = read-out: ED50, MCF7, 4 h exposure, FIG. 8
[16] = read-out: Fraction of Cell Survival, MCF7, FIG. 8, 1 μM, 4 h
[17] = read-out: Fraction of Cell Survival, MCF7, FIG. 8, 5 μM, 4 h
[18] = read-out: Fraction of Cell Survival, MCF7, FIG. 8, 10 μM, 4 h
[19] = read-out: Fraction of Cell Survival, MCF7, FIG. 8, 50 μM, 4 h
[20] = read-out: Fraction of Cell Survival, A549, FIG. 5, 1 μM, 4 h
[21] = read-out: Fraction of Cell Survival, A549, FIG. 5, 5 μM, 4 h
[22] = read-out: Fraction of Cell Survival, A549, FIG. 5, 10 μM, 4 h
[23] = read-out: Fraction of Cell Survival, A549, FIG. 5, 50 μM, 4 h

## CC1(C)OC2=C(CC1O)C(=O)C(=O)c1ccccc12 (stereo not drawn) [3-hydroxy-β-lapachone]
HT29
  effect on ability of HT29 cells to reproduce: significantly limits the reproductive ability of these cancer cell lines
HT29; [3]
  viability at 2 µM: 152%
  viability at 10 µM: 119%
  viability at 20 µM: 2.32%
  viability at 100 µM: 0%
HT29; Homo sapiens
  IC50: 15400 nM
BE
  effect on ability of BE cells to reproduce: significantly limits the reproductive ability of these cancer cell lines
  viability at 2 µM: 92.9%
  viability at 10 µM: 39.2%
  viability at 20 µM: 1.02%
  viability at 100 µM: 0%
  IC50: 600 nM
MCF7; [4]
  IC50: 7700 nM
MCF7; [5]
  viability at 1 µM: 106%
  viability at 5 µM: 68%
  viability at 10 µM: 0%
  viability at 50 µM: 0.32%
A549; FIG. 3
  IC50: 18000 nM
A549; [5]
  viability at 1 µM: 304%
  viability at 5 µM: 239%
  viability at 10 µM: 153%
  viability at 50 µM: 0%

## CC1CC2=C(O1)c1ccccc1C(=O)C2=O (centres unmarked) [Drug A]
MCF7; [6]
  IC50: 1600 nM
MCF7; [7]
  viability at 1 µM: 85.4%
MCF7; [8]
  viability at 5 µM: 0.36%
MCF7; [9]
  viability at 10 µM: 0.18%
MCF7; [10]
  viability at 50 µM: 0.18%
A549; FIG. 4
  IC50: 6000 nM
A549; [11]
  viability at 1 µM: 111%
A549; [12]
  viability at 5 µM: 121%
A549; [13]
  viability at 10 µM: 1.72%
A549; [14]
  viability at 50 µM: 0.23%

## CC1OC2=C(C(=O)C(=O)c3ccccc32)C1C (centres unmarked) [Drug B, 2,3-dimethyl-2,3,4,5-dihydro-naphtho (2,3-b)dihydrofuran-6,7-dione]
[1]
  IC50: 700 nM
[2]
  IC50: 500 nM
MCF7; [15]
  IC50: 1400 nM
MCF7; [16]
  viability at 1 µM: 8.88%
MCF7; [17]
  viability at 5 µM: 0.32%
MCF7; [18]
  viability at 10 µM: 0.16%
MCF7; [19]
  viability at 50 µM: 1.54%
A549; FIG. 5
  IC50: 5600 nM
A549; [20]
  viability at 1 µM: 89.7%
A549; [21]
  viability at 5 µM: 81.9%
A549; [22]
  viability at 10 µM: 0.24%
A549; [23]
  viability at 50 µM: 0%

## CC1OC2=C(C(=O)C(=O)c3ccccc32)C1(C)C (centres unmarked) [Drug C, 2,3,3-trimethyl-2,3,4,5-tetrahydro-naphtho(2,3-b)dihydrofuran-6,7-dione]
[1]
  IC50: 600 nM
[2]
  IC50: 700 nM
Topoisomerase II
  intracellular target (in words): Topo II is an intracellular target
MCF7; [15]
  IC50: 1400 nM
MCF7; [16]
  viability at 1 µM: 55.8%
MCF7; [17]
  viability at 5 µM: 0.65%
MCF7; [18]
  viability at 10 µM: 0.32%
MCF7; [19]
  viability at 50 µM: 0.65%
A549; FIG. 5
  IC50: 4300 nM
A549; [20]
  viability at 1 µM: 110%
A549; [21]
  viability at 5 µM: 40%
A549; [22]
  viability at 10 µM: 0%
A549; [23]
  viability at 50 µM: 0%

## Cc1cc2c(o1)-c1ccccc1C(=O)C2=O [Drug D]
[1]
  IC50: 900 nM
[2]
  IC50: 700 nM

## CC1(C)CCC2=C(O1)c1ccccc1C(=O)C2=O [β-lapachone, 7,8-dihydro-2,2-dimethyl-2H-naphtho(2,3-b)dihydropyran-7,8-dione, reference compound]
HT29
  effect on ability of HT29 cells to reproduce: significantly impacts upon the ability of the HT29 and BE cells to reproduce
HT29; [3]
  viability at 1 µM: 96.7%
  viability at 5 µM: 49%
  viability at 10 µM: 0%
  viability at 50 µM: 0%
HT29; Homo sapiens
  IC50: 4800 nM
Topoisomerase II
  intracellular target (in words): Topo II is an intracellular target
BE
  effect on ability of BE cells to reproduce: significantly impacts upon the ability of the HT29 and BE cells to reproduce
  viability at 2 µM: 1.17%
  viability at 10 µM: 15.8%
  viability at 20 µM: 4.39%
  viability at 100 µM: 0%
  IC50: 8000 nM
MCF7; [4]
  IC50: 9800 nM
MCF7; [6]
  IC50: 1600 nM
MCF7; read-out: Fraction of Cell Survival, MCF7, FIG. 6, 1 μM, 4 h
  viability at 1 µM: 150%
MCF7; read-out: Fraction of Cell Survival, MCF7, FIG. 6, 5 μM, 4 h
  viability at 5 µM: 0%
MCF7; read-out: Fraction of Cell Survival, MCF7, FIG. 6, 10 μM, 4 h
  viability at 10 µM: 0%
MCF7; read-out: Fraction of Cell Survival, MCF7, FIG. 6, 50 μM, 4 h
  viability at 50 µM: 0.32%
MCF7; [7]
  viability at 1 µM: 92%
MCF7; [8]
  viability at 5 µM: 0.36%
MCF7; [9]
  viability at 10 µM: 0.18%
MCF7; [10]
  viability at 50 µM: 0.09%
A549; FIG. 3
  IC50: 6100 nM
A549; FIG. 4
  IC50: 5800 nM
A549; read-out: Fraction of Cell Survival, A549, FIG. 3, 1 μM, 4 h
  viability at 1 µM: 265%
A549; read-out: Fraction of Cell Survival, A549, FIG. 3, 5 μM, 4 h
  viability at 5 µM: 158%
A549; read-out: Fraction of Cell Survival, A549, FIG. 3, 10 μM, 4 h
  viability at 10 µM: 0%
A549; read-out: Fraction of Cell Survival, A549, FIG. 3, 50 μM, 4 h
  viability at 50 µM: 17.7%
A549; [11]
  viability at 1 µM: 85.5%
A549; [12]
  viability at 5 µM: 89.7%
A549; [13]
  viability at 10 µM: 0.69%
A549; [14]
  viability at 50 µM: 0%
